Results as given in ChEMBL document CHEMBL4507276 (2021).

Tests used:
Details in all cases: Compound concentration 1000.0 nM
[1] = target: T1, Homeodomain-interacting protein kinase 4 (Homo sapiens) (UniProt Q8NE63)
T1 sequence (whole entry): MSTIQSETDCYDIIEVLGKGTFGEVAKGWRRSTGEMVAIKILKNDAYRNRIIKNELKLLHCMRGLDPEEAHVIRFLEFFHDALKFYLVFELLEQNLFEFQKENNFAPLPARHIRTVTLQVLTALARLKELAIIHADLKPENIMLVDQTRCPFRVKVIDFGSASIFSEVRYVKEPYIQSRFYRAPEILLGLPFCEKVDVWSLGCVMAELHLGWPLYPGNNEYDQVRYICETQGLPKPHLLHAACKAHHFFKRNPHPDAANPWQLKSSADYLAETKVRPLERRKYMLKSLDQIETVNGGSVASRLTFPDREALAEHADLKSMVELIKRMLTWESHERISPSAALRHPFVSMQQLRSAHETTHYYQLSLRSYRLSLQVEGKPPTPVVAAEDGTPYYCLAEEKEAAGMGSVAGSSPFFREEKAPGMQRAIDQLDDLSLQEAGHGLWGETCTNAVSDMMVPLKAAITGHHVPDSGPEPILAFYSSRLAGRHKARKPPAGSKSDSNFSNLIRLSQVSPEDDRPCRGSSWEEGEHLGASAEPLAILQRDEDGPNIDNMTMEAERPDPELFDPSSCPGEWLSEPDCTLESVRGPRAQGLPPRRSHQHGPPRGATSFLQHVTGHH

[2] = target: Cyclin-dependent kinase 18 (Homo sapiens) (UniProt Q07002)
[3] = target: Cyclin-G-associated kinase (Homo sapiens) (UniProt O14976)
[4] = target: T2, Serine/threonine-protein kinase Sgk2 (Homo sapiens) (UniProt Q9HBY8)
T2 sequence (whole entry): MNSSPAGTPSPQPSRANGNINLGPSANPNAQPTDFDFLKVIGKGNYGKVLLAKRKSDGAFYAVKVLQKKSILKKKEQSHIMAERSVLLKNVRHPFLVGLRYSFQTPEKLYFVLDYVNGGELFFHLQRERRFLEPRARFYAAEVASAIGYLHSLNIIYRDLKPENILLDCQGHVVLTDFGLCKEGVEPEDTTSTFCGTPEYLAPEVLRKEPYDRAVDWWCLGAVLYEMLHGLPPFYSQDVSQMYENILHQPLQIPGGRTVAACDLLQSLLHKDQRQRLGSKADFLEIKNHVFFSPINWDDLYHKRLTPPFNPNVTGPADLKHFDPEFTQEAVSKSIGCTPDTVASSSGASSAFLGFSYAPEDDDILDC

[5] = target: 5'-AMP-activated protein kinase catalytic subunit alpha-1 (Homo sapiens) (UniProt Q13131)
[6] = target: T3, Serine/threonine-protein kinase D2 (Homo sapiens) (UniProt Q9BZL6)
T3 sequence (whole entry): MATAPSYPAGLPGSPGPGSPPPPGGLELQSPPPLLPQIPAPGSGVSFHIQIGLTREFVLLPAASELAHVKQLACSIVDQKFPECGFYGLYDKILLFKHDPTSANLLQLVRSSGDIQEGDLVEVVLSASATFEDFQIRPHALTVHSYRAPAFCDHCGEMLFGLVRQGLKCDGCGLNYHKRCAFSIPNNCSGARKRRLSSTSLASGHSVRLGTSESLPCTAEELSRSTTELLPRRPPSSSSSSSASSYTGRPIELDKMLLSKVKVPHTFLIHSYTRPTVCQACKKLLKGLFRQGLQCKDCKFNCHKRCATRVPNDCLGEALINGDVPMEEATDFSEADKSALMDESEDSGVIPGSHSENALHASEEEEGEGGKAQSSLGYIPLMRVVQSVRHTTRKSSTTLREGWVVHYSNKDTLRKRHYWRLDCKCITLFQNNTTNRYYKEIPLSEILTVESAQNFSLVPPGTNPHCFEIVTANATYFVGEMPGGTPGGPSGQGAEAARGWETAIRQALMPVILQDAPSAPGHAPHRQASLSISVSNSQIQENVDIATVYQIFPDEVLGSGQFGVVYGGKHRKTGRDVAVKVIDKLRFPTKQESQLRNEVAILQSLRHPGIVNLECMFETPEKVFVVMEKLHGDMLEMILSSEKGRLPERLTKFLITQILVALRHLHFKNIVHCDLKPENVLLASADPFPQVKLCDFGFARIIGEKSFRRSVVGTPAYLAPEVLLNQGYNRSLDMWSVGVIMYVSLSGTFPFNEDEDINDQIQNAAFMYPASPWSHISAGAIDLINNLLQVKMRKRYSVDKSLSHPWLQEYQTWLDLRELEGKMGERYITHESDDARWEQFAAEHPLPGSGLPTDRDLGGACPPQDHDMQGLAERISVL

[7] = target: Dual specificity tyrosine-phosphorylation-regulated kinase 1B (Homo sapiens) (UniProt Q9Y463)
[8] = target: Tyrosine-protein kinase receptor UFO (Homo sapiens) (UniProt P30530)
[9] = tested on: Proto-oncogene tyrosine-protein kinase receptor Ret (Homo sapiens), P07949 [V804M]

Measured: residual activity

Sequence of Cyclin-dependent kinase 18 (Homo sapiens) (Q07002 whole entry): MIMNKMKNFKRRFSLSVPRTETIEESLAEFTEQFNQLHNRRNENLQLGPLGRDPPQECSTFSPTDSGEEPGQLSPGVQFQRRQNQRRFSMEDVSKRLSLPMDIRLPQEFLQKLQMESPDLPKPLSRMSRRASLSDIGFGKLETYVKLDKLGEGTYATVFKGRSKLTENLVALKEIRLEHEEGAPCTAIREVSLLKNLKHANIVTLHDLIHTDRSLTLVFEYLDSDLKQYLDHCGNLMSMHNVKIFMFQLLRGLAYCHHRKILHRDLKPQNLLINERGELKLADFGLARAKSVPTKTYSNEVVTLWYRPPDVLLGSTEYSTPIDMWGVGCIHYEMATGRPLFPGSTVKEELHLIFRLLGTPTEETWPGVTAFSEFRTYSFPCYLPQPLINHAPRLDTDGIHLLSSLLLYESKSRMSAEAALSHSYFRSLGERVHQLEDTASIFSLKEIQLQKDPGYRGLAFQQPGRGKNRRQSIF
Sequence of Dual specificity tyrosine-phosphorylation-regulated kinase 1B (Homo sapiens) (Q9Y463 whole entry, looked up): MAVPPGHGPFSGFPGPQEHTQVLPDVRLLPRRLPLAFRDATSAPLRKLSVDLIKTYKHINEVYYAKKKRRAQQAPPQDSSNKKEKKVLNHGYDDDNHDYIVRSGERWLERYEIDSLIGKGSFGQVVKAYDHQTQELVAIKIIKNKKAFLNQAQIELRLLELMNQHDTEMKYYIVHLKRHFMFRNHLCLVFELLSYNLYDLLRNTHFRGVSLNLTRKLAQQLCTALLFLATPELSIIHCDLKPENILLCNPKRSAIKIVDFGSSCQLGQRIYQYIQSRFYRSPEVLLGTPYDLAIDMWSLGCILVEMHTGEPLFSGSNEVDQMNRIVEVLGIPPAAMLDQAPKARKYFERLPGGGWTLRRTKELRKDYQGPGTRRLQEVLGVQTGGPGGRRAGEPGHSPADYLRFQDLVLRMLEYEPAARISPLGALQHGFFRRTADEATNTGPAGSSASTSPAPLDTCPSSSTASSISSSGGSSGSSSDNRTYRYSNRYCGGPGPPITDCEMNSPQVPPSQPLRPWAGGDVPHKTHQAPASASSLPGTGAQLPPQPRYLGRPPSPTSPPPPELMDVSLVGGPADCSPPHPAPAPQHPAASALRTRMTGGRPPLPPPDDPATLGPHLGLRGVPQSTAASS
Sequence of Cyclin-G-associated kinase (Homo sapiens) (O14976 whole entry): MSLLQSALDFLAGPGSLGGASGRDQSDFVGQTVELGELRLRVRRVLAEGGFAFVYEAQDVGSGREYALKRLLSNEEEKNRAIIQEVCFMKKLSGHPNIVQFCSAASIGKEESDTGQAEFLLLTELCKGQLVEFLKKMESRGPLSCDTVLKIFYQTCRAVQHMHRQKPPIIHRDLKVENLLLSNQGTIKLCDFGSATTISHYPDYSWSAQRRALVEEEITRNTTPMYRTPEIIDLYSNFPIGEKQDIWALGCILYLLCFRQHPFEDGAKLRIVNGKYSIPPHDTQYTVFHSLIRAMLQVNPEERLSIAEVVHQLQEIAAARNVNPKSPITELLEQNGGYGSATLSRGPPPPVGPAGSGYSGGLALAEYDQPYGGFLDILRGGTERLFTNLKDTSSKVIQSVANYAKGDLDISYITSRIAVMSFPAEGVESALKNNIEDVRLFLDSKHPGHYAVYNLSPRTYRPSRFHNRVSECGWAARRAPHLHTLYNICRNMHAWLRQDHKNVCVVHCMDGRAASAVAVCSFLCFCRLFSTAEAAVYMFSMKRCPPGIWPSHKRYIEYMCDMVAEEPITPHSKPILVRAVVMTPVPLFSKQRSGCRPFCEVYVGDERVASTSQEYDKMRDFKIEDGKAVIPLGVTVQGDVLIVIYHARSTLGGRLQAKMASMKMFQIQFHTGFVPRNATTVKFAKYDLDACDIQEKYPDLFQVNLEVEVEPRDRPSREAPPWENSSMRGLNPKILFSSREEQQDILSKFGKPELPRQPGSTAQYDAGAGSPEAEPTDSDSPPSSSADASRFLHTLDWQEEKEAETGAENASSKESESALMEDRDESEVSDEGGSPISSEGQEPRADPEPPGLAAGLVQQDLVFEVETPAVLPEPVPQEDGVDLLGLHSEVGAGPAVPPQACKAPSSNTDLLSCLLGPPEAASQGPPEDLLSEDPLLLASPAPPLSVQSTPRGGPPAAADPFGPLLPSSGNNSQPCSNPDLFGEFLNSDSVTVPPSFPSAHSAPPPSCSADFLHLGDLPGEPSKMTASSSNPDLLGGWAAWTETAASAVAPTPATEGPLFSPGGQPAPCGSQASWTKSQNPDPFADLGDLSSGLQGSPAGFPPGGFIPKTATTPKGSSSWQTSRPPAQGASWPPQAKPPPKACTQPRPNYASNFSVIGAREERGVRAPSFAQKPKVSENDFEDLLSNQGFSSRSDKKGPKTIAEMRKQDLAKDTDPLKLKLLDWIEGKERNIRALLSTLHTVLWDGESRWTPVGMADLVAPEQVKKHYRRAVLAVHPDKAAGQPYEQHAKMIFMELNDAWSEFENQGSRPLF
Sequence of 5'-AMP-activated protein kinase catalytic subunit alpha-1 (Homo sapiens) (Q13131 whole entry, looked up): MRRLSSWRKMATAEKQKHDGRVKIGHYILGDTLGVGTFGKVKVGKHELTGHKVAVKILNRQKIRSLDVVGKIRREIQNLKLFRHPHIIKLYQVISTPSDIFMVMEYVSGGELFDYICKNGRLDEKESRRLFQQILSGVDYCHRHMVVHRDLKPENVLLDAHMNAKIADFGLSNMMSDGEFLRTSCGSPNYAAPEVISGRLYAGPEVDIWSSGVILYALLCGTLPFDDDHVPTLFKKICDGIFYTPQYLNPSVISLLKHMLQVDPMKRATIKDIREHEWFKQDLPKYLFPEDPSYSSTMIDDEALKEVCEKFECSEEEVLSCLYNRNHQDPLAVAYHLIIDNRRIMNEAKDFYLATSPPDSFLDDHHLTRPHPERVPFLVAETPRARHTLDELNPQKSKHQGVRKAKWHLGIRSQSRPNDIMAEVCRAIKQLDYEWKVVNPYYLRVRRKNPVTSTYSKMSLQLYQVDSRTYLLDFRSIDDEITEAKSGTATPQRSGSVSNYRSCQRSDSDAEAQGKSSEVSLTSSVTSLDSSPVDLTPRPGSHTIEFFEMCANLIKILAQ
Sequence of Tyrosine-protein kinase receptor UFO (Homo sapiens) (P30530 whole entry): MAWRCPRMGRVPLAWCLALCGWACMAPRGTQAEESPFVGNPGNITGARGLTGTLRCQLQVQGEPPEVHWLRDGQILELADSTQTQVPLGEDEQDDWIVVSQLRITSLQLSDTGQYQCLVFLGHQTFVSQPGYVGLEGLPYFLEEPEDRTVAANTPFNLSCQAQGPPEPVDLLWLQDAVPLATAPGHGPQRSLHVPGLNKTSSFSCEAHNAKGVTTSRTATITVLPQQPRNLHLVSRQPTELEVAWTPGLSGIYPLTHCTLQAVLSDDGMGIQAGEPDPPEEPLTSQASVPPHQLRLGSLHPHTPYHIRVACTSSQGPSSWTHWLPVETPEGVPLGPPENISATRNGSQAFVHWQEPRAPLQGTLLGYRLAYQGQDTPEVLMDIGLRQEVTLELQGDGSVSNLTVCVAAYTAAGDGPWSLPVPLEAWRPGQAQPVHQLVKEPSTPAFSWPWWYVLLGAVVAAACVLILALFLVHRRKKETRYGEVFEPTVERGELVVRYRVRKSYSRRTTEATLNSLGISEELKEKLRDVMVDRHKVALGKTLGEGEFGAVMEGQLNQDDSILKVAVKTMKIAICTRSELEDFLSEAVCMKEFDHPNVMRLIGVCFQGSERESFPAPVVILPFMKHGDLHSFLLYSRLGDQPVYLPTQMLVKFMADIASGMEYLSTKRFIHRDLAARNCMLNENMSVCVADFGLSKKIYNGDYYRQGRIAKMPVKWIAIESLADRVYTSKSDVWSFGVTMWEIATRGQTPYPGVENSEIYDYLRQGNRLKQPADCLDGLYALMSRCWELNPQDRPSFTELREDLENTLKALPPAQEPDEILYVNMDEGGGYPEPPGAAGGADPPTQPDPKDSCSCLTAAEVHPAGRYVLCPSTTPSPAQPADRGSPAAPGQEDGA
Sequence of Proto-oncogene tyrosine-protein kinase receptor Ret (Homo sapiens), P07949 [V804M] (P07949 whole entry V804M): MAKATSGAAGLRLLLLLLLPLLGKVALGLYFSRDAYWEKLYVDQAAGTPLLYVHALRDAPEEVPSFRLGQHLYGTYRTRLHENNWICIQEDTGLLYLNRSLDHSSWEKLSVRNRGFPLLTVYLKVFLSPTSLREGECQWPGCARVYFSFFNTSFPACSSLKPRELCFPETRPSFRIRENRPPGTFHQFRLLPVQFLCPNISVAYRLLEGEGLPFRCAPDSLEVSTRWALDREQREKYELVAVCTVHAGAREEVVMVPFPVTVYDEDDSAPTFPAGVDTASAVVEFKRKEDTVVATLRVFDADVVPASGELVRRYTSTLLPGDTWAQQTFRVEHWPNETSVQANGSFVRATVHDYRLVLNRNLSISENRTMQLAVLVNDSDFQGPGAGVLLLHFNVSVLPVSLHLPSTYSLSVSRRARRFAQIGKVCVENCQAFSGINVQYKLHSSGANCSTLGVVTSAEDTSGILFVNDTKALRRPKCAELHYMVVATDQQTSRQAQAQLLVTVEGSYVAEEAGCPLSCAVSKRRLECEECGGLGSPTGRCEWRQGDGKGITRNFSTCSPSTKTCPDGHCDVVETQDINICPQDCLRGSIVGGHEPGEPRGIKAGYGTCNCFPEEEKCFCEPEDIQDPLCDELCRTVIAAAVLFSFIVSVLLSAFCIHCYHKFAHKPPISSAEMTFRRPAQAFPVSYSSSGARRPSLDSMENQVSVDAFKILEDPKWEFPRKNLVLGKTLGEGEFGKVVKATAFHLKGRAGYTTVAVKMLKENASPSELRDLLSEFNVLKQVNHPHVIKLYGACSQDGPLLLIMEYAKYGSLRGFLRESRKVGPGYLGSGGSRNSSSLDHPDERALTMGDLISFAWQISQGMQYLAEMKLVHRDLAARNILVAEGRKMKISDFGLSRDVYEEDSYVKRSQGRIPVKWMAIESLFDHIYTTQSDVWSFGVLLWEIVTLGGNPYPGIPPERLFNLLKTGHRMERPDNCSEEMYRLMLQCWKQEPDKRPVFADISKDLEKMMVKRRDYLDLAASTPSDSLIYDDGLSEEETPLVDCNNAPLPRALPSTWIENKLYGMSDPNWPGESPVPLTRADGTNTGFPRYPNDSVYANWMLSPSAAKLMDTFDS

CN(C)C(=O)Cn1cc(-c2nc(C3(c4ccc(-c5cnc(N)nc5)cc4)CC3)no2)cn1 [BI 0153]
inactive: [1] 100% | [2] 83% | [3] 100% | [4] 100% | [5] 98% | [6] 89% | [7] 66% | [8] 93% | [9] 100%

CN(C)C(=O)Cn1cc(-c2nc([C@@](C)(c3ccc(-c4cnc(N)nc4)cc3)C3CC3)no2)cn1 [BI 665915]
inactive: [1] 70% | [2] 100% | [3] 100% | [4] 83% | [5] 95% | [6] 100% | [7] 98% | [8] 98% | [9] 97%
